In patent US10047059B2, “Substituted quinoxalines for inhibiting kinase activity” (NEUPHARMA, INC., priority 2012, dated 2018):

Assays:
[1] = molecular target: T1, BRAF V600E (Homo sapiens, UniProt P15056, V600E); assay: Z'-LYTE kinase inhibition assay against BRAF V600E; format: biochemical; conditions: % inhibition at 1 μM, Z'-LYTE method
T1 construct: purchased Invitrogen
Description: Inhibitory activities Inhibitory activities of compounds against BRAF, and BRAF V600E were measured by Invitrogen using Z′-LYTE® Method as briefly described in the following. 4× Test compounds are dissolved in 1% DMSO. […] ATP solutions are diluted to a 4×ATP working concentration in Kinase Buffer (50 mM HEPES pH 7.5, 0.01% BRIJ-35, 10 mM MgCl2, 1 mM EGTA). Reaction started by 30-second shaking of mixture consisting of 2.5 μL 4× test compound, […] and 2.5 μL 4×ATP Solution on Bar-coded Corning, low volume NBS, black 384-well plate (Corning Cat. #3676). Then the mixture was incubated for 60-minute at room temperature for the kinase reaction, followed by addition of 5 μL of a 1:1024 dilution of development reagent A and 30-second plate shake. The mixture was then incubated for another 60-minute at room temperature for development reaction. Fluorescence was read by plate reader. IC50 was calculated by plotting the concentration of compound vs the percentage of inhibition in treated wells using GraphPad Prism 5.
Table 2 and 3 show % inhibition at 1 μM of several compounds of the invention against BRAF and BRAF V600E, respectively, using Z′-LYTE® method.
The scale utilized in Table 4 is as follows: +++ less than 100 nM; and ++ greater than 100 nM.

[2] = molecular target: T2, KDR (VEGFR2) (Homo sapiens, UniProt P35968); assay: Z'-LYTE kinase inhibition assay against KDR; format: biochemical; conditions: % inhibition at 1 μM, Z'-LYTE method
T2 construct: purchased Invitrogen
Description: Inhibitory activities of compounds against KDR (VEGFR2) were also measured by Invitrogen using Z′-LYTE® Method as described above with the following modification. The 2×KDR (VEGFR2)/Tyr 01 mixture is prepared in 50 mM HEPES pH 7.5, 0.01% BRIJ-35, 10 mM MgCl2, 1 mM EGTA. The final 10 μL Kinase Reaction consists of 0.5-11.7 ng KDR (VEGFR2) and 2 μM Tyr 01 in 50 mM HEPES pH 7.5, 0.01% BRIJ-35, 10 mM MgCl2, 1 mM EGTA. After the 1 hour Kinase Reaction incubation, 5 μL of a 1:256 dilution of Development Reagent B is added.
The scale utilized in Table 6 is as follows: +++ less than 100 nM; and ++ greater than 100 nM

[3] = system: A375 cells; assay: Inhibition of cancer cell growth, MTT or MTS assay, A375; format: cell-based; conditions: Homo sapiens, A-375, 72 h incubation
Description: (§1) Inhibition of cell growth by compounds was measured using MTT or MTS assay. Tumor cell lines were purchased from ATCC (American Type Culture Collection, Manassas, Va.). All cell lines were maintained in RPMI 1640 (Hyclone) supplemented with 10% fetal bovine serum (FBS, Hyclone), glutamine (2 mM, Hyclone), and antibiotics (penicillin 100 U/mL and streptomycin 50 μg/mL) at 37° C. in a humidified atmosphere of 5% CO2 in air. Taxol (as a positive control, Sigma) and compounds were dissolved in DMSO (Sigma), and the final concentration of DMSO in the medium was 1%. Tumor cells were plated in 96-well plates at densities of about 2000 (A375) or 4000 (A549 and Colo205) cells/well of a 96-well plate and allowed to adhere/grow for 24 h. They were then treated with various concentrations of drug and incubated for 72 h. For MTT method, medium was then removed by inverting and tapping the plates. 100 μL of MTT (0.5 mg/ml) was added to each well followed by an incubated at 37° C. for 4 h. MTT was then removed and 200 μL of DMSO was added to each well, and the ODs at 570 nm were measured after a 5 second shaking cycle in a 96-well spectrophotometer. For MTS method, 20 μL MTS (CellTiter 96 Aqueous One Solution, Promega) was added to each well followed by an incubated at 37° C. for 2-4 h, solutions were then directly put in a 96-well spectrophotometer, and the ODs at 490 nm were measured.
(§2) All concentrations of compounds were tested in triplicate and controls were averaged over 4 wells. IC50 was calculated by plotting the concentration of compound vs the percentage of inhibition in treated wells using GraphPad Prism 5. […] The scale utilized in Tables 7-9 is as follows: +++ less than 1000 nM; ++ between 1000 nM and 5000 nM; and + greater than 5000 nM. The scale utilized in […]

[4] = system: A549 cells; assay: Inhibition of cancer cell growth, MTT or MTS assay, A549; format: cell-based; conditions: Homo sapiens, 72 h incubation
Description: as §1, §2

T2 sequence (P35968 20-1356): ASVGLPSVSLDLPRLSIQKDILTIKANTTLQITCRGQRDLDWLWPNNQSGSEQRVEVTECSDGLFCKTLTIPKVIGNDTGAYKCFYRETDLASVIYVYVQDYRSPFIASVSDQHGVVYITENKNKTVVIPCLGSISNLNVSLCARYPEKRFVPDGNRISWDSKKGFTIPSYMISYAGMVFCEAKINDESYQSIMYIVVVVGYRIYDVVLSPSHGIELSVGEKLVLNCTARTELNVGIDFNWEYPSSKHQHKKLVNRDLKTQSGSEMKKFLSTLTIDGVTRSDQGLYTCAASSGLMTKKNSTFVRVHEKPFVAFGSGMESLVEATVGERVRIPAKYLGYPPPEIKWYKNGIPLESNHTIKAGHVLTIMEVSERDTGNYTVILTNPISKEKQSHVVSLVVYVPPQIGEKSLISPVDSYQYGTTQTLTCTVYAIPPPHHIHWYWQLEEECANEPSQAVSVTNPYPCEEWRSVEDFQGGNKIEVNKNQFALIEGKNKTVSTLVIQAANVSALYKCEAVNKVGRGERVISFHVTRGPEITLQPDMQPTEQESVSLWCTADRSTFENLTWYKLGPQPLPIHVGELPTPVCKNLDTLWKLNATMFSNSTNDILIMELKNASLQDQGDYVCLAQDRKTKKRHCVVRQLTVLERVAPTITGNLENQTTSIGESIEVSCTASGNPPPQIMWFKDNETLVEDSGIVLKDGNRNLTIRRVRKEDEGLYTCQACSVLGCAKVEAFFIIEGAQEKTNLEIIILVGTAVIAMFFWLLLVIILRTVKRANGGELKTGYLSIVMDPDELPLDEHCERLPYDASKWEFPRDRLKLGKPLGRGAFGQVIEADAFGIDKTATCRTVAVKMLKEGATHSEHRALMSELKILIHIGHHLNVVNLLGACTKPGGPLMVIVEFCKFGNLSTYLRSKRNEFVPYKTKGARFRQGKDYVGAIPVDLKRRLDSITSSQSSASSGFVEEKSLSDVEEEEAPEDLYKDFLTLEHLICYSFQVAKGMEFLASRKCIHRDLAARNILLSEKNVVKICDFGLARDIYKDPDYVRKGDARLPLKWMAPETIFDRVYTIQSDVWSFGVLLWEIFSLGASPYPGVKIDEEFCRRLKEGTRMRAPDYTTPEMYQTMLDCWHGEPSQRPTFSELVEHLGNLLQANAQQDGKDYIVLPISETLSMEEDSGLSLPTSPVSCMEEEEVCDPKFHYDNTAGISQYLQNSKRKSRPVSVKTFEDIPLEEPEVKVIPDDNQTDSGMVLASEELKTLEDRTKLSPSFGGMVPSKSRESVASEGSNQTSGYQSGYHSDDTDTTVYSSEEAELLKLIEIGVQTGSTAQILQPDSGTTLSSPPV
T1 sequence (P15056 whole entry V600E): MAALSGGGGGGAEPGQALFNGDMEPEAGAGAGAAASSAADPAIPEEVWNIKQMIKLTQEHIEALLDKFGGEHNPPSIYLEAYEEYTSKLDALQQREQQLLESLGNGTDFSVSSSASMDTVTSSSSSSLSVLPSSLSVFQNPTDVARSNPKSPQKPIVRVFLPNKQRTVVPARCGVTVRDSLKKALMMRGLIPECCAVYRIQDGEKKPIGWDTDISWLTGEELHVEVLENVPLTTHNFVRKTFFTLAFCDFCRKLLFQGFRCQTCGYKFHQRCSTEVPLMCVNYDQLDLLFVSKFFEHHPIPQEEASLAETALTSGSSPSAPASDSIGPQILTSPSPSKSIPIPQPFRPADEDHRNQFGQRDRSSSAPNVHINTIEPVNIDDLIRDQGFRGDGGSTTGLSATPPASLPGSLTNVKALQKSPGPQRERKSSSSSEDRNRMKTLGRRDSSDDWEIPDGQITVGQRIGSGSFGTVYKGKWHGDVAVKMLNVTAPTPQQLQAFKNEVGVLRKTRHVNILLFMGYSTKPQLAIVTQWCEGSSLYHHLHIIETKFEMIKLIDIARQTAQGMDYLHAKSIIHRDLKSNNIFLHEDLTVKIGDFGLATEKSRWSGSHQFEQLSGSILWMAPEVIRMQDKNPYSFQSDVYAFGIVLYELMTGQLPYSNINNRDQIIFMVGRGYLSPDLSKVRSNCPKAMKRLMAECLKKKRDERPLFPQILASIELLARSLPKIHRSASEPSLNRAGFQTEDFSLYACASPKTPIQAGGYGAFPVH

| inhibition at 1 µM [1] | inhibition at 1 µM [2] | IC50 [3] | IC50 [4] | SMILES |
| --- | --- | --- | --- | --- |
| < 70% | 70 to 89% | 1 to 5 µM | 1 to 5 µM | O=C(Nc1ccc(C(=O)c2ccc3ncc(N4CCOCC4)nc3c2)cc1)Nc1ccc(F)c(C(F)(F)F)c1 [Compound C06, 1-(4-fluoro-3-(trifluoromethyl)phenyl)-3-(4-(3-morpholinoquinoxaline-6-carbonyl)phenyl)urea] |
| < 70% | 70 to 89% | 1 to 5 µM | 1 to 5 µM | O=C(Nc1ccc(C(=O)c2ccc3ncc(N4CCOCC4)nc3c2)cc1)Nc1ccc(Cl)c(C(F)(F)F)c1 [Compound C07, 1-(4-chloro-3-(trifluoromethyl)phenyl)-3-(4-(3-morpholinoquinoxaline-6-carbonyl)phenyl)urea] |
| < 70% | < 70% | < 1 µM | 1 to 5 µM | O=C(Nc1ccc(C(=O)c2ccc3ncc(N4CCOCC4)nc3c2)cc1)Nc1ccc(C(F)(F)F)cc1 [Compound C08, 1-(4-(3-morpholinoquinoxaline-6-carbonyl)phenyl)-3-(4-(trifluoromethyl)phenyl)urea] |
| < 70% | < 70% | – | > 5 µM | O=C(Nc1cccc(F)c1)Nc1ccc(C(=O)c2ccc3ncc(N4CCOCC4)nc3c2)c(F)c1 [Compound C22, 1-(3-fluoro-4-(3-morpholinoquinoxaline-6-carbonyl)phenyl)-3-(3-fluorophenyl)urea] |
| 70 to 89% | < 70% | – | > 5 µM | O=C(Nc1ccc(F)cc1)Nc1ccc(C(=O)c2ccc3ncc(N4CCOCC4)nc3c2)c(F)c1 [Compound C23, 1-(3-fluoro-4-(3-morpholinoquinoxaline-6-carbonyl)phenyl)-3-(4-fluorophenyl)urea] |
| < 70% | 70 to 89% | 1 to 5 µM | 1 to 5 µM | O=C(Nc1cccc(C(F)(F)F)c1)Nc1ccc(C(=O)c2ccc3ncc(N4CCOCC4)nc3c2)c(F)c1 [Compound C24, 1-(3-fluoro-4-(3-morpholinoquinoxaline-6-carbonyl)phenyl)-3-(3-(trifluoromethyl)phenyl)urea] |
| < 70% | < 70% | – | 1 to 5 µM | O=C(Nc1ccc(C(=O)c2ccc3ncc(N4CCOCC4)nc3c2)c(F)c1)Nc1ccc(Cl)c(C(F)(F)F)c1 [Compound C25] |
| < 70% | < 70% | – | > 5 µM | N#Cc1cnc2ccc(C(=O)c3ccc(NC(=O)Nc4ccc(Cl)c(C(F)(F)F)c4)cc3F)cc2n1 [Compound C30, 1-(4-chloro-3-(trifluoromethyl)phenyl)-3-(4-(3-cyanoquinoxaline-6-carbonyl)-3-fluorophenyl)urea] |
| 70 to 89% | < 70% | – | – | Cn1cc(NC(=O)Nc2ccc(C(=O)c3ccc4ncc(N5CCNCC5)nc4c3)c(F)c2)cn1 [Compound C32, 1-(3-fluoro-4-(3-(piperazin-1-yl)quinoxaline-6-carbonyl)phenyl)-3-(1-methyl-1H-pyrazol-4-yl)urea] |
| > 89% | < 70% | 1 to 5 µM | – | Cc1cc(NC(=O)Nc2ccc(C(=O)c3ccc4ncc(N5CCNCC5)nc4c3)c(F)c2)no1 [Compound C33, 1-(3-fluoro-4-(3-(piperazin-1-yl)quinoxaline-6-carbonyl)phenyl)-3-(5-methylisoxazol-3-yl)urea] |
| – | – | > 5 µM | – | O=C(Nc1ccc(C(=O)c2ccc3ncc(N4CCOCC4)nc3c2)c(F)c1)c1cccc(F)c1 [Compound C34, 3-fluoro-N-(3-fluoro-4-(3-morpholinoquinoxaline-6-carbonyl)phenyl)benzamide] |
| – | – | > 5 µM | – | O=C(Nc1ccc(C(=O)c2ccc3ncc(N4CCOCC4)nc3c2)c(F)c1)c1ccc(Cl)cc1 [Compound C35, 4-chloro-N-(3-fluoro-4-(3-morpholinoquinoxaline-6-carbonyl)phenyl)benzamide] |
| – | – | > 5 µM | – | O=C(Nc1ccc(C(=O)c2ccc3ncc(N4CCOCC4)nc3c2)c(F)c1)c1ccc(Cl)c(C(F)(F)F)c1 [Compound C36, 4-chloro-N-(3-fluoro-4-(3-morpholinoquinoxaline-6-carbonyl)phenyl)-3-(trifluoromethyl)benzamide] |
| – | – | > 5 µM | – | O=C(Nc1ccc(C(=O)c2ccc3ncc(N4CCOCC4)nc3c2)c(F)c1)c1cccc(Cl)c1 [Compound C37, 3-chloro-N-(3-fluoro-4-(3-morpholinoquinoxaline-6-carbonyl)phenyl)benzamide] |
| – | – | 1 to 5 µM | – | O=C(Nc1ccc(C(=O)c2ccc3ncc(N4CCOCC4)nc3c2)c(F)c1)c1cccc(C(F)(F)F)c1 [Compound C38, N-(3-fluoro-4-(3-morpholinoquinoxaline-6-carbonyl)phenyl)-3-(trifluoromethyl)benzamide] |
| – | – | 1 to 5 µM | – | O=C(Nc1ccc(C(=O)c2ccc3ncc(N4CCNCC4)nc3c2)c(F)c1)c1cccc(F)c1 [Compound C39, 3-fluoro-N-(3-fluoro-4-(3-(piperazin-1-yl)quinoxaline-6-carbonyl)phenyl)benzamide] |
| – | – | 1 to 5 µM | – | O=C(Nc1ccc(C(=O)c2ccc3ncc(N4CCNCC4)nc3c2)c(F)c1)c1ccc(Cl)cc1 [Compound C40, 4-chloro-N-(3-fluoro-4-(3-(piperazin-1-yl)quinoxaline-6-carbonyl)phenyl)benzamide] |
| – | – | < 1 µM | – | O=C(Nc1ccc(C(=O)c2ccc3ncc(N4CCNCC4)nc3c2)c(F)c1)c1cccc(Cl)c1 [Compound C41, 3-chloro-N-(3-fluoro-4-(3-(piperazin-1-yl)quinoxaline-6-carbonyl)phenyl)benzamide] |
| – | – | 1 to 5 µM | – | O=C(Nc1ccc(C(=O)c2ccc3ncc(N4CCNCC4)nc3c2)c(F)c1)c1cccc(C(F)(F)F)c1 [Compound C42, N-(3-fluoro-4-(3-(piperazin-1-yl)quinoxaline-6-carbonyl)phenyl)-3-(trifluoromethyl)benzamide] |
| – | – | < 1 µM | – | O=C(Nc1ccc(C(=O)c2ccc3ncc(N4CCNCC4)nc3c2)c(F)c1)c1ccc(Cl)c(C(F)(F)F)c1 [Compound C43, 4-chloro-N-(3-fluoro-4-(3-(piperazin-1-yl)quinoxaline-6-carbonyl)phenyl)-3-(trifluoromethyl)benzamide] |

| SMILES | inhibition at 1 µM [1] | inhibition at 1 µM [2] | IC50 [3] | IC50 [4] |
| --- | --- | --- | --- | --- |
| N#Cc1ccc(NC(=O)Nc2ccc(C(=O)c3ccc4ncc(N5CCOCC5)nc4c3)cc2)cc1C(F)(F)F [Compound C15, 1-(4-cyano-3-(trifluoromethyl)phenyl)-3-(4-(3-morpholinoquinoxaline-6-carbonyl)phenyl)urea] | < 70% | 70 to 89% | 1 to 5 µM | 1 to 5 µM |
| N#Cc1ccc(NC(=O)Nc2ccc(C(=O)c3ccc4ncc(N5CCOCC5)nc4c3)c(F)c2)cc1C(F)(F)F [Compound C18, 1-(4-cyano-3-(trifluoromethyl)phenyl)-3-(3-fluoro-4-(3-morpholinoquinoxaline-6-carbonyl)phenyl)urea] | 70 to 89% | 70 to 89% | 1 to 5 µM | 1 to 5 µM |
